Data from paper PMC9658586, “1,4-Naphthoquinone Motif in the Synthesis of New Thiopyrano[2,3-d]thiazoles as Potential Biologically Active Compounds” (Molecules, 2022).
Read-outs that look alike come from different tables or passages of the source.

How the values were obtained:
[1] = system: MDA-MB-435/Melanoma; assay: NCI single-dose screen, MDA-MB-435; type: cell-based, human; conditions: 10 μM, 48 h
Protocol: (§1) Considering the results of previous studies of fused thiazolidinones and their analogs, a series of thiopyrano[2,3-d]thiazoles with naphthoquinone fragments in the structure were studied for their anticancer activity. Thus, synthesized thiopyranothiazole derivatives 3.5 and 3.6 were selected by the National Cancer Institute (NCI), U.S., for their anticancer activity at 10 μM concentration toward a panel of sixty cancer cell lines representing nine different types (leukemia, melanoma, lung, colon, CNS, ovarian, renal, prostate, and breast cancers) (Figures S13–S14). Selection for screening based on new derivatives’ ability to add diversity to the NCI small molecules collection and anticancer assays were performed according to the NCI guidelines and protocols previously described. The compounds were added at the mentioned concentration, and the cell cultures were incubated for 48 h. The results for each compound were reported as the growth percent (GP%) of treated cells compared with untreated control cells.
(§2) Anticancer in vitro assay was performed on the human tumor cell lines panel derived from nine neoplastic diseases by the protocol of the Drug Evaluation Branch, National Cancer Institute, Bethesda, MD, USA [44, 45, 46]. […] GP% was spectrophotometrically evaluated vs. controls not treated with test agents.

[2] = system: human keratinocytes of HaCaT line; assay: MTT cell viability assay, HaCaT; type: cell-based; conditions: 72 h, pseudo-normal cells
Protocol: (§3) The MTT cell viability assay was performed 72 h after cells treatment with various concentrations of studied compounds and doxorubicin, a reference drug. […] It is known that ABCB1 (P-glycoprotein), MRP1/ABCC1 (multidrug resistance protein 1), and BCRP/BCG2 (breast cancer resistance protein) have been reported to be key players in resistance to chemotherapy. […] The p53 has diverse mutations in almost all human tumors, stimulating their hyper-proliferation, invasion/metastasis, and thus, influencing the potency of various chemotherapeutics (i.e., platins and anti-metabolites).
(§4) Human colon carcinoma HCT116 cells, human breast adenocarcinoma cells of MCF-7 line, human T-leukemia Jurkat cells, human chronic myelogenous leukemia K562 cells, and human keratinocytes of HaCaT line were from the Cell Collection of R.E. Kavetsky Institute of Experimental Pathology, Oncology and Radiobiology (Kyiv, Ukraine). Murine macrophages of J774.2 line were a generous gift from Professor Sir John Vane (William Harvey Research Institute, London, UK) via Professor Janusz Marcinkiewicz (Jagiellonian University Medical College, Krakow, Poland). Human colon carcinoma HCT116 p53-/- cells with knockdown of P53 gene, as well as human epidermoid cervix carcinoma KB3-1 cells and its ABCB1-overexpressing subline KBC-1, were kindly provided by Professor W. Berger (Institute of Cancer Research, Medical University of Vienna, Austria). […] Human leukemia monocytic THP-1 cells were kindly provided by Professor M. Herrmann (Department of Internal Medicine, Institute for Clinical Immunology and Rheumatology, University of Erlangen-Nuremberg, Germany). […]
(§5) MTT assay was used to examine the viability of tumor and pseudo-normal cells after their treatment with studied thiopyrano[2,3-d]thiazole derivatives and doxorubicin (Actavis S.R.L., Bucharest, Romania). […] An absorbance Reader BioTek ELx800 (BioTek Instruments, Inc., Winooski, VT, USA) was used to measure the reaction product.

[3] = system: salmon sperm DNA; assay: DNA/methyl green colorimetric (replacement) assay; type: binding
Protocol: In addition, we used DNA/methyl green colorimetric assay to study the possible interaction of compound 3.6 in DNA. […] This assay was used to measure the displacement of methyl green from DNA by compounds with the ability to intercalate DNA [54].
The capacity of the tested compounds to intercalate into salmon sperm DNA was determined using the methyl green assay. Briefly, salmon sperm DNA (10 mg/mL) was incubated for 1 h at 37 °C with 15 µL of methyl green solution (1 mg/mL in H2O). The compounds were added at concentrations 1 and 10 µM/mL and incubated at 37 °C in the dark for 2 h. Reduction of the absorbance of methyl green at 642 nm induced by the test compounds was measured with a multiplate reader, Plate Reader BioTek Lx80 ( BioTek Instruments, Inc., Winooski, VT, USA). Doxorubicin, a well-known intercalating agent, was used as a positive control.

[4] = system: SNB-75/ Central Nervous System Cancer; assay: NCI single-dose screen, SNB-75; type: cell-based, human; conditions: 10 μM, 48 h
Protocol: as §1, §2

[5] = system: human breast adenocarcinoma cells of MCF-7 line; assay: MTT cell viability assay, MCF-7; type: cell-based; conditions: Homo sapiens, MCF7, 72 h
Protocol: as §3
(§6) Human colon carcinoma HCT116 cells, human breast adenocarcinoma cells of MCF-7 line, human T-leukemia Jurkat cells, human chronic myelogenous leukemia K562 cells, and human keratinocytes of HaCaT line were from the Cell Collection of R.E. Kavetsky Institute of Experimental Pathology, Oncology and Radiobiology (Kyiv, Ukraine). Murine macrophages of J774.2 line were a generous gift from Professor Sir John Vane (William Harvey Research Institute, London, UK) via Professor Janusz Marcinkiewicz (Jagiellonian University Medical College, Krakow, Poland). Human colon carcinoma HCT116 p53-/- cells with knockdown of P53 gene, as well as human epidermoid cervix carcinoma KB3-1 cells and its ABCB1-overexpressing subline KBC-1, were kindly provided by Professor W. Berger (Institute of Cancer Research, Medical University of Vienna, Austria). […] Human leukemia monocytic THP-1 cells were kindly provided by Professor M. Herrmann (Department of Internal Medicine, Institute for Clinical Immunology and Rheumatology, University of Erlangen-Nuremberg, Germany). Cells were cultured in DMEM or RPMI-1640 medium supplemented with 10% fetal bovine serum (all were purchased from Biowest, Nuaille, France) at 37 °C in a humidified atmosphere containing 5% CO2.
(§7) MTT assay was used to examine the viability of tumor and pseudo-normal cells after their treatment with studied thiopyrano[2,3-d]thiazole derivatives and doxorubicin (Actavis S.R.L., Bucharest, Romania). Cells were seeded in 96-well plates at a density of 3–5 × 103. After 24 h, cells were treated with compound […], 1,4-NQ (0.1–100 µM), and doxorubicin (0.1–100 µM). After incubation for 72 h, MTT reagent (Sigma-Aldrich, St. Louis, MO, USA) was added to each well, according to the Sigma-Aldrich protocol. An absorbance Reader BioTek ELx800 (BioTek Instruments, Inc., Winooski, VT, USA) was used to measure the reaction product.

[6] = system: Human colon carcinoma HCT116 p53-/- cells; assay: MTT cell viability assay, HCT116 p53-/-; type: cell-based; conditions: for IC50: Homo sapiens, read-out: IC50, HCT116 p53-/-
Protocol: as §3, §6, §7

[7] = system: human chronic myelogenous leukemia K562 cells; assay: MTT cell viability assay, K562; type: cell-based; conditions: Homo sapiens, K562, 72 h
Protocol: as §3, §6, §7

[8] = system: KBC-1 (ABCB1-overexpressing subline of KB3-1); assay: MTT cell viability assay, KBC-1; type: cell-based; conditions: Homo sapiens, 72 h
Protocol: as §3, §4, §5

[9] = system: KB3-1 cells; assay: Fluorescence microscopy of cells, Hoechst-33342 staining; type: cell-based, human; conditions: 1 µM, 24 h
Protocol: One can also see giant KB3-1 cells with abnormal nuclei and looser chromatin (Figure 7B). The mitotic catastrophe may occur during or after aberrant mitosis. Mitotic catastrophe has been reported as a special example of apoptosis affecting mitochondrial membrane permeabilization and caspase activation. […] Thus, compound 3.6 induced pro-apoptotic cytomorphological changes in treated KB3-1 cells.
The KB3-1 cells were seeded in 24-well plates at 5 × 10^5/mL and then treated for an additional 24 h with compound […] (1 μM) and doxorubicin (1 μM). Cells were stained with 0.2–0.5 µg/mL of Hoechst-33342 and incubated for 20–30 min before the cell examination. A Zeiss fluorescent microscope (Carl Zeiss, Jena, Germany), AxioImager A1 camera (at 400× magnification), and AxioVision image analysis software Release 4.6.3.0 for Carl Zeis microscopy (Imaging Associates Ltd., Cork, Ireland, UK) were used for cells examination. All microphotographs were additionally analyzed using ImagePro7 software (Media Cybernetics, Rockville, MD, USA).

[10] = system: human T-leukemia Jurkat cells; assay: MTT cell viability assay, Jurkat; type: cell-based; conditions: 72 h
Protocol: as §3
Human colon carcinoma HCT116 cells, human breast adenocarcinoma cells of MCF-7 line, human T-leukemia Jurkat cells, human chronic myelogenous leukemia K562 cells, and human keratinocytes of HaCaT line were from the Cell Collection of R.E. Kavetsky Institute of Experimental Pathology, Oncology and Radiobiology (Kyiv, Ukraine). […]
as §5

Compound	Most Sensitive Cell Line Growth, % (MDA-MB-435/Melanoma) [1]	IC50 ([2]; listed as Dox)	IC50 ([2]; Homo sapiens, HaCaT)	methyl green replacement ([3]; 10 µM, compared with compound 3.6)	Most Sensitive Cell Line Growth, % (SNB-75/ Central Nervous System Cancer) [4]	IC50 [5]	IC50 ([6]; HCT-116, 72 h)	IC50 [7]	IC50 [8]	cytomorphological alterations [9]	IC50 [10]	percentage of methyl green replacement ([3]; dependent on concentration (1 and 10 µM))	cytotoxic action on p53-deficient colon carcinoma cells relative to HCT116wt ([6]; HCT116 p53-/- vs HCT116wt)	IC50 ([6]; HCT-116, MTT, 72 h)
COc1cccc2c1C(=O)c1c(O)c3c(c(O)c1C2=O)C[C@@](O)(C(=O)CO)C[C@@H]3O[C@H]1C[C@H](N)[C@H](O)[C@H](C)O1 [Doxorubicin, doxorubicin, reference compound]	−82.60%	800 nM	800 to 1000 nM	two times more effective	−76.10%	630 nM	580 nM	620 nM	1970 nM	chromatin condensation and membrane blabbing	670 nM	–	–	–
O=C1C2=C(C(=O)c3ccccc31)C(CCc1ccccc1)c1sc(=O)[nH]c1S2 (stereo not drawn) [Compound 3.6, 11-Phenethyl-3,11-dihydro-2H-benzo[6,7]thiochromeno[2,3-d]thiazole-2,5,10-trione]	52.87%	–	> 100000 nM	–	–	8940 nM	–	25700 nM	12800 nM	shrunk, with condensed chromatin and membrane blabbing	760 nM	35.00 to 39.64%	two times weaker	12300 nM
